Data: patent US8163766B2, “Beta-secretase modulators and methods of use” (Amgen Inc., priority 2005, dated 2012)

test system: Aβ 40 in conditioned media of cells stably expressing Amyloid Precursor Protein (APP); assay: BACE Cell-Based Assay (Aβ40 in conditioned medium, sandwich ELISA); details: 24 hours of incubation with the test compounds, Aβ 40 by sandwich ELISA, read-out: IC50 values in the cell-based assay (inhibition of Aβ 40)
Procedure: The cell-based assay measures inhibition or reduction of Aβ40 in conditioned medium of test compound treated cells, which express amyloid precursor protein.
Cells stably expressing Amyloid Precursor Protein (APP) were plated at a density of 40K cells/well in 96 well plates (Costar). The cells were cultivated for 24 h at 37° C. and 5% CO2 in DMEM supplemented with 10% FBS. The test compounds were then added to cells in 10-point dose response concentrations with the starting concentration being either 100 μM or 10 μM. The compounds were diluted from stock solutions in DMSO and the final DMSO concentration of the test compounds on cells was 0.1%. After 24 hours of incubation with the test compounds the supernatant conditioned media was collected and the Aβ 40 levels were determined using a sandwich ELISA. The IC50 of the compound was calculated from the percent of control or percent inhibition of Aβ 40 as a function of the concentration of the test compound.
The sandwich ELISA to detect Aβ 40 was performed in 96 well microtiter plates, which were pre-treated with goat anti-rabbit IgG (Pierce). The capture and detecting antibody pair that were used to detect Aβ 40 from cell supernatants were affinity purified pAb40 (Biosource) and biotinylated 6E10 (Signet Labs Inc.), respectively. The optimal concentration for the pAb40 antibody was 3 μg/ml in Superblock/TBS (Pierce) that was supplemented with 0.05% Tween 20 (Sigma). Optimal concentration for the detection antibody 6E10-biotinylated was […] in Superblock/TBS (Pierce) that had been supplemented with 2% normal goat serum and 2% normal mouse serum.
Cellular supernatants were incubated with the capture antibody for 3 h at 4° C., followed by 3 wash steps in TBS-tween (0.05%). The detecting antibody incubation was for 2 h at 4° C., again followed by the wash steps as described previously. The final readout of the ELISA is Time-Resolved Fluorescence (counts per minute) using Delfia reagents Streptavidin-Europium and Enhancement solutions (Perkin Elmer) and the Victor 2 multilabel counter (Perkin Elmer).

IC50, ≤ 5 µM:
CCc1ccc2c(c1)[C@@H](NC[C@@H](O)[C@H](Cc1ccccc1)NC(=O)c1ccc(=O)n(C3CCCC3)n1)CC1(CCC1)O2 [Example 151, 1-cyclopentyl-N-((2S,3R)-4-((S)-6-ethyl-2,2-spirocyclo-butylchroman-4-ylamino)-3-hydroxy-1-phenylbutan-2-yl)-6-oxo-1,6-dihydropyridazine-3-carboxamide]
CCc1ccc2c(c1)[C@@H](NC[C@@H](O)[C@H](Cc1ccccc1)NC(=O)c1cc(N3CCCC3=O)c(=O)n(C3CCCC3)c1)CC1(CCCCC1)O2 [Example 128, 1-cyclopentyl-N-((2S,3R)-4-((8)-6-ethyl-2,2-spirocyclohexyl-chroman-4-ylamino)-3-hydroxy-1-phenylbutan-2-yl)-6-oxo-5-(2-oxopyrrolidin-1-yl)-1,6-dihydropyridine-3-carboxamide]
CCc1ccc2c(c1)[C@@H](NC[C@@H](O)[C@H](Cc1ccccc1)NC(=O)[C@@H]1CN(C(=O)N3CCO[C@@H](C)C3)CCO1)CC1(CCC1)O2 [Example 521, (2S)-N-((1S,2R)-3-(((4S)-6-ethyl-3,4-dihydrospiro[chromene-2,1′-cyclobutan]-4-yl)amino)-2-hydroxy-1-(phenylmethyl)propyl)-4-(((2S)-2-methyl-4-morpholinyl)carbonyl)-2-morpholinecarboxamide]
CCc1ccc2c(c1)C(NC[C@@H](O)[C@H](Cc1ccccc1)NC(=O)c1ccc(=O)n(C3CCCC(c4ccccc4)C3)c1)CC1(CCCC1)O2 (stereo partly shown) [Example 12]
Cc1cnc2c(c1)[C@@H](NC[C@@H](O)[C@H](Cc1ccccc1)NC(=O)C1CCOCC1)CC1(CCC1)C2 [Example 502, N-((1S,2R)-2-hydroxy-3-(((5′S)-3′-methyl-5′,8′-dihydro-6′H-spiro[cyclobutane-1,7′-quinolin]-5′-yl)amino)-1-(phenylmethyl)propyl)tetrahydro-2H-pyran-4-carboxamide]
O=C(N[C@@H](Cc1ccccc1)[C@H](O)CN[C@H]1CC2(CCC2)Oc2ccc(N3CCOCC3)cc21)[C@H]1CC(=O)N(C2CCC2)C1 [Example 524, (3S)-1-cyclobutyl-N-((1S,2R)-2-hydroxy-3-(((4S)-6-(4-morpholinyl)-3,4-dihydrospiro[chromene-2,1′-cyclobutan]-4-yl)amino)-1-(phenylmethyl)propyl)-5-oxo-3-pyrrolidinecarboxamide]
CCc1ccc2c(c1)C(NC[C@@H](O)[C@H](Cc1ccccc1)NC(=O)c1cc(-c3ccncc3)c(=O)n(C3CCCC3)c1)CC1(CCCC1)O2 (stereo partly drawn) [Example 15, 1-cyclopentyl-N-((2S,3R)-4-(6-ethyl-2,2-spirocyclopentylchroman-4-ylamino)-3-hydrodroxy-1-phenylbutan-2-yl)-6-OXO-5-(pyridin-4-yl)-1,6-dihydropyridine-3-carboxamide]
CCc1ccc2c(c1)[C@@H](NC[C@@H](O)[C@H](Cc1ccccc1)NC(=O)c1ccc(=O)n(C3CCCC(C)C3)c1)CC1(CCCC1)O2 (stereo partly shown) [Example 161]
CC1(C)Cc2ccc(O[C@H]3CCOC3)cc2[C@@H](NC[C@@H](O)[C@H](Cc2ccccc2)NC(=O)[C@H]2CCC(=O)O2)C1 [Example 516, (2R)-N-((1S,2R)-3-(((1S)-3,3-dimethyl-7-((3S)-tetrahydro-3-furanyloxy)-1,2,3,4-tetrahydro-1-naphthalenyl)amino)-2-hydroxy-1-(phenyl-methyl)propyl)-5-oxotetrahydro-2-furancarboxamide]
Cc1cccc(C(=O)N2CCO[C@H](C(=O)N[C@@H](Cc3ccccc3)[C@H](O)CN[C@H]3CC(C)(C)Cc4ncc(C)cc43)C2)c1 [Example 498, (2S)-N-((1S,2R)-2-hydroxy-1-(phenylmethyl)-3-(((5S)-3,7,7-trimethyl-5,6,7,8-tetrahydro-5-quino-linyl)amino)propyl)-4-((3-methylphenyl)carbonyl)-2-morpholinecarboxamide]
O=C(N[C@@H](Cc1ccccc1)[C@H](O)CN[C@H]1CC2(CCC2)Oc2ccccc21)c1cc(N2CCCC2=O)c(=O)n(C2CCCC2)c1 [Example 152, 1-cyclopentyl-N-((2S,3R)-4-((S)-2,2-spirocyclobutylchroman-4-ylamino)-3-hydroxy-1-phenylbutan-2-yl)-6-oxo-5-(2-oxopyrrolidin-1-yl)-1,6-dihydropyridine-3-carboxamide]
CCc1ccc2c(c1)C(NC[C@@H](O)[C@H](Cc1ccccc1)NC(=O)c1cc(-c3ccccc3)c(=O)n(C3CCCC3)c1)CC1(CCCC1)O2 (stereo partly shown) [Example 8]
CCc1ccc2c(c1)C(NC[C@@H](O)[C@H](Cc1ccccc1)NC(=O)c1ccc(=O)n(C3CCC(c4ccccc4)C3)c1)CC1(CCCC1)O2 (stereo partly shown) [Example 10]
CC1(C)Oc2ncccc2[C@H]1NC[C@@H](O)[C@H](Cc1ccccc1)NC(=O)c1cc(-c2ccccn2)c(=O)n(C2CCCC2)c1 [Example 512, 1′-cyclopentyl-N-((1S,2R)-3-(((3R)-2,2-dimethyl-2,3-dihydrofuro[2,3-b]pyridin-3-yl)amino)-2-hydroxy-1-(phenylmethyl)propyl)-2′-oxo-1′,2′-dihydro-2,3′-bipyridine-5′-carboxamide]
Cc1cnc2c(c1)[C@@H](NC[C@@H](O)[C@H](Cc1cc(F)cc(F)c1)NC(=O)C1CCOCC1)CC1(CCC1)C2 [Example 510, N-((1S,2R)-1-((3,5-difluorophenyl)methyl)-2-hydroxy-3-(((5′S)-3′-methyl-5′,8′-dihydro-6′H-spiro[cyclobutane-1,7′-quinolin]-5′-yl)amino)propyl)tetrahydro-2H-pyran-4-carboxamide]
CC(C)c1ccc2c(c1)[C@@H](NC[C@@H](O)[C@H](Cc1ccccc1)NC(=O)c1nn(-c3ccccc3)c(=O)cc1Cl)CC1(CCCC1)O2 [Example 144, 4-chloro-N-((2S,3R)-3-hydroxy-4-((S)-6-isopropyl-2,2-spirocyclopentylchroman-4-ylamino)-1-phenylbutan-2-yl)-6-oxo-1-phenyl-1,6-dihydropyridazine-3-carb oxamide]
Cc1ccc2c(c1)[C@@H](NC[C@@H](O)[C@H](Cc1ccccc1)NC(=O)c1ccc(=O)n(CC(C)(C)C)c1)CC1(CCCC1)O2 [Example 133, N-((2S,3R)-4-((S)-2,2-spirocyclopentyl-6-methylchroman-4-ylamino)-3-hydroxy-1-phenylbutan-2-yl)-1-neopentyl-6-oxo-1,6-dihydropyridine-3-carboxamide]
O=C(N[C@@H](Cc1ccc(F)cc1)[C@H](O)CN[C@H]1CC2(CCC2)Oc2cc(F)c(-n3cccn3)cc21)C1CC1 [Example 472, N-((1S,2R)-1-((4-fluorophenyl)methyl)-3-(((4S)-7-fluoro-6-(1H-pyrazol-1-yl)-3,4-dihydrospiro[chromene-2,1′-cyclobutan]-4-yl)amino)-2-hydroxypropyl)cyclopropanecarboxamide]
CCCOC[C@H](NC(=O)c1cc(-c2ccccn2)c(=O)n(C2CCCC2)c1)[C@H](O)CN[C@H]1CC2(CCC2)Oc2ccc(CC)cc21 [Example 483, 1′-cyclopentyl-N-((1S,2R)-3-(((4S)-6-ethyl-3,4-dihydrospiro[chromene-2,1′-cyclobutan]-4-yl)amino)-2-hydroxy-1-((propyloxy)methyl)propyl)-2′-oxo-1′,2′-dihydro-2,3′-bipyridine-5′-carboxamide]
Cc1cccc(C(=O)N2CCO[C@@H](C(=O)N[C@@H](Cc3cccc(C#N)c3)[C@H](O)CN[C@H]3CC(C)(C)Cc4ncc(C)cc43)C2)c1 [Example 497, (2R)-N-((1S,2R)-1-((3-cyanophenyl)methyl)-2-hydroxy-3-(((5S)-3,7,7-trimethyl-5,6,7,8-tetrahydro-5-quinolinyl)amino)propyl)-4-((3-methylphenyl)carbonyl)-2-morpholinecarboxamide]
CCc1ccc2c(c1)C(NC[C@@H](O)[C@H](Cc1ccccc1)NC(=O)c1cc(-c3cnccn3)c(=O)n(C3CCCC3)c1)CC1(CCCC1)O2 (stereo partly drawn) [Example 22, 1-cyclopentyl-N-((2S,3R)-4-(6-ethyl-2,2-spirocyclopentylchroman-4-ylamino)-3-hydrodroxy-1-phenylbutan-2-yl)-6-oxo-5-(pyrazin-2-yl)-1,6-dihydropyridine-3-carboxamide]
CCc1ccc2c(c1)[C@@H](NC[C@@H](O)[C@H](Cc1ccccc1)NC(=O)[C@H]1CN(C(=O)N3CCCCC3)CCO1)CC(C)(C)O2 [Example 484, (2R)-N-((1S,2R)-3-(((4S)-6-ethyl-2,2-dimethyl-3,4-dihydro-2H-chromen-4-yl)amino)-2-hydroxy-1-(phenylmethyl)propyl)-4-(1-piperidinylcarbonyl)-2-morpholinecarboxamide]
